# Assay results from patent publication US20030040012A1, “Method of detecting protein-protein interaction” (priority 2000, published 2003).
# How the values were obtained:
# Type in all cases: cell-based
# Npw38 = assay: Npw38-NpwBP binding detection by intracellular localization of GFP fluorescence in COS7 cells; conditions: co-introduced with Npw38 expression vector, fluorescence microscopy
# Method: (§1) Monkey kidney-derived, cultured cell COS7 was incubated in a 10% fetal calf serum-containing Dulbecco's modified Eagle's medium (DMEM) in the presence of 5% CO2 at 37° C. COS7 cells of 1=10^5 were placed in a 6-well plate (from Nunk, having a well diameter of 3 cm), and further incubated therein in the presence of 5% CO2 at 37° C. for 22 hours. After the medium was removed, the cell sur were washed with a phosphate buffer solution (PBS), and then further washed with a 50 mM Tris-HCl (pH 7.5)-containing DMEM. To these cells, added was a suspension comprising 1 μl of a plasmid suspension, 0.6 ml of DMEM and 3 μl of TRANSFECTAM™ (from IBF), and incubated in the presence of 5% CO2 at 37° C. for 12 hours. Then, the cells were washed with PBS, and fixed with 4% peraformaldehyde-containing PBS at room temperature for 10 minutes. The thus-fixed cells were washed with PBS, then treated with 0.2% Triton X-100, and thereafter blocked with 5% milk PBS. This was reacted with an anti-HA antibody for 45 minutes, then washed with PBS, and reacted with a rhodamine-binding secondary antibody for 45 minutes.
# Fusion protein HA-Npw38 (A. Komuro et al., J. Biol. Chem., 274: 36513-36519, 1999) was used. This is a fusion protein A-X in which X is Npw38 and A is HA tag. […] Also used were fusion proteins NpwBP(P1)-GFP and NpwBP(P2)-GFP. These are fusion proteins Y-B in which Y is a proline-rich region of NpwBP and B is GFP. In these, P1 contains amino acid residues of from 190th valine to 210th glutamine in SEQ ID NO: 2; and P2 contains amino acid residues of from 401st glutamine to 541st isoleucine in Seq ID NO: 2.
# First, pKA1-NpwBP(P1)-GFP or pKA1-NpwBP(P2)-GFP was singly introduced into COS7 cells, and the localization of these fusion proteins in the cells was checked through fluorescence microscopy based on the green fluorescence of GFP as the index thereof. […] In this stage, the cells were immunostained with an antibody against the tag to check the localization of the fusion protein HA-Npw38. This verified the localization of the fusion protein in the nucleus of each cell (FIG. 3c).
# NpwBP = biological target: T1, NpwBP (Homo sapiens, UniProt Q9Y2W2); assay: Contrary system: NpwBP co-expressed with Npw38(ΔC)-GFP in COS7 cells, GFP localization
# T1 construct: expressed in transfected cells; host or cells: COS7 (monkey kidney)
# T1 sequence (Q9Y2W2 1-641): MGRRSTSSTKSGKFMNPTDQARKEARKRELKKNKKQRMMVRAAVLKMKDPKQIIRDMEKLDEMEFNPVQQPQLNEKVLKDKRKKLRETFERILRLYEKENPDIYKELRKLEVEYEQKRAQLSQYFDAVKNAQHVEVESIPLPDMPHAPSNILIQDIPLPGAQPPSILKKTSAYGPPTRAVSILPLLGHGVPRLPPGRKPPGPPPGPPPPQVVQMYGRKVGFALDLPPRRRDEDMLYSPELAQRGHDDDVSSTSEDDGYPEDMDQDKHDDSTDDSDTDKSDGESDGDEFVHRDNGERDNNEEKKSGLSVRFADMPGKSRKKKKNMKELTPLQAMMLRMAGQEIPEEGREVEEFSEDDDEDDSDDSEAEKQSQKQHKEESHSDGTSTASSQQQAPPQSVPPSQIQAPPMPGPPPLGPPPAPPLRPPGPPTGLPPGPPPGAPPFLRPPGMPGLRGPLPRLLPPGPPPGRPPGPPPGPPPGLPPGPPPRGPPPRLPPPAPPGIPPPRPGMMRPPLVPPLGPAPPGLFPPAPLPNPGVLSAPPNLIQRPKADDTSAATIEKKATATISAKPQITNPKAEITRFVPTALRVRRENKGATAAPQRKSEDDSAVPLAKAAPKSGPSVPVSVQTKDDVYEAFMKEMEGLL
# Method: as §1
# Systems contrary to those in the above (3) were tried.
# NpwBP(P2)-Bcl-XL = biological target: T2, NpwBP(P2)-Bcl-XL (Homo sapiens, UniProt Q07817+Q9Y2W2); assay: Application of mitochondrial localization signal: co-expression with NpwBP(P2)-Bcl-XL in COS7 cells; conditions: mitochondrial region detected with anti-human mitochondrial antibody
# T2 construct: expressed in transfected cells; host or cells: COS7 (monkey kidney)
# Method: as §1, with “45 minutes. […]” for “45 minutes.”
# However, when the fusion protein NpwBP(P2)Bcl-XL was co-expressed therein, the mitochondrial region of each cell also gave the fluorescence (FIG. 4). The mitochondrial region in each cell was detected through immunostaining with an anti-human mitochondrial antibody (Leinco Technologies, Inc.). […]
# T2 sequence (Q9Y2W2+Q07817 fused): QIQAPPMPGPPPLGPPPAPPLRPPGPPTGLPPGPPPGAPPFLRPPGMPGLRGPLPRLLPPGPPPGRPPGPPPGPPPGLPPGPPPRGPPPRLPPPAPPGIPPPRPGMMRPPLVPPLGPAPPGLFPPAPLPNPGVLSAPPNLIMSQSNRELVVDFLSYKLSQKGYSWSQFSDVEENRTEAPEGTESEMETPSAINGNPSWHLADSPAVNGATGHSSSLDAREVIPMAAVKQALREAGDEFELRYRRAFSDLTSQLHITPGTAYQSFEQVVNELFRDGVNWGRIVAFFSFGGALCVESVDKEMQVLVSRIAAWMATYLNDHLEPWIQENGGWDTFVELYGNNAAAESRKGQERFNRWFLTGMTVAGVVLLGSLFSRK
Substance,localization of the green fluorescence on co-expression with Npw38 (Npw38),localization of the green fluorescence on co-expression with NpwBP (NpwBP),localization of the fluorescence on co-expression with NpwBP(P2)-Bcl-XL (NpwBP(P2)-Bcl-XL)
NpwBP(P2)-GFP: fusion protein of proline-rich region P2 of NpwBP (residues 401-541 of SEQ ID NO: 2) and GFP,localized in the nucleus,–,–
"Npw38(ΔC)-GFP: fusion protein in which the nuclear localization signal in Npw38 was deleted, fused to GFP",–,move in the nucleus,localized also in the mitochondrial region
"GFP: green fluorescent protein, expressed in place of NpwBP-GFP as control [reference compound]",no intranuclear localization,–,–
NpwBP(P1)-GFP: fusion protein of proline-rich region P1 of NpwBP (residues 190-210 of SEQ ID NO: 2) and GFP,localized in the nucleus,–,–
